From US8206707B2, “Combination therapy for the treatment of ocular neovascular disorders” (Ophthotech Corporation, priority 2004, dated 2012)
“Also recorded” adds a separate entry of the source.

Tests used:
[1] = tested on: corneal neovascularization; experiment: Corneal NV regression, order of addition of therapeutic agent, Example 8; format: in vivo, C57BL/6 mice; settings: APB5 from day 14-21, pegaptanib sodium from day 21-28; read day 28; FIG. 14
Method: (§1) Corneal Neovascularization is a widely used animal model that allows clear visualization of abnormal vascular growth in the eye. The vessels that grow into the normally avascular cornea, can become well established, making this an attractive model to study vessel regression. To induce experimental corneal NV, male C57BL/6 mice (18-20 g; Charles River, Wilmington, Mass.) were anesthetized with intramuscular ketamine hydrochloride (25 mg/kg) and xylazine (10 mg/kg). NaOH (2 ul of 0.2 mM) was applied topically. The corneal and limbal epithelia were removed by applying a rotary motion parallel to the limbus using #21 blade (Feather, Osaka, Japan). […] Corneal NV was visualized using fluorescence microscopy and quantified using Openlab software. The percent of cornea covered by vessels was calculated as a percentage of total corneal area.
(§2) The corneal NV model of Example 1 was used to investigate the effect of order of addition of the combination therapy using an anti-VEGF aptamer and an antibody against the PDGFB receptor. […] Corneal NV was visualized using fluorescence microscopy and quantified using Openlab software. The percent of cornea covered by vessels was calculated as a percentage of total corneal area and the results are depicted in FIG. 14.

[2] = tested on: corneal neovascularization; experiment: Corneal neovascularization (corneal NV) model, Example 1; format: in vivo, C57BL/6 mice; settings: mice; pegaptanib 25 mg/kg i.p. twice a day, Gleevec 50 mg/kg gavage twice a day; treated day 7-14, read day 14; FIG. 5
[3] = tested on: corneal neovascularization; experiment: Corneal NV regression, anti-VEGF aptamer and antibody against PDGFB receptor, Example 7; format: in vivo, C57BL/6 mice; settings: pegaptanib 25 mg/kg i.p. twice a day, APB5 50 mg/kg by gavage twice a day; treated day 14-28, read day 28; FIG. 13
Method: as §1
as §2, with “combination” for “effect”, “of” for “of order of addition of the combination therapy using”, “area.” for “area and the results are depicted in FIG. 14.”

[4] = tested on: choroidal neovascularization; experiment: Laser-induced choroidal neovascularization (CNV) model, Example 2; format: in vivo, C57BL/6 mice; settings: treated 7 days from day 7; for decrease in CNV area compared to control eyes: experiment with Gleevec (50 mg/kg gavage twice a day) and pegaptanib 25 mg/kg i.p. twice a day
Method: Experimental CNV is often used as a model for Age-related Macular degeneration (AMD). In this model, vessels of the choroid grow through breaks in Bruch's membrane and into the retina, similar to what is observed in AMD patients. To induce experimental CNV, male C57BL/6 mice (18-20 g; Charles River, Wilmington, Mass.) were anesthetized with intramuscular ketamine hydrochloride (25 mg/kg) and xylazine (10 mg/kg) and the pupils were dilated with 1% tropicamide. Four burns were generated using diode laser photocoagulation (75-μm spot size, 0.1-second duration, 90 mW, Oculight SL laser, IRIDEX, Mountain View, Calif.) and a hand-held cover slide as a contact lens. Burns localized to the 3, 6, 9 and 12 o'clock positions of the posterior pole of the retina. Production of a bubble at the time of laser, which indicates rupture of Bruch's membrane, is an important factor in obtaining choroidal neovascularization, so only mice in which a bubble was produced for all four burns were included in the study. […] In experiments using APB5 (an anti-mouse PDGFRb (CD140b) antibody (anti-PDGF agent) from eBioscience, San Diego, Calif.), 5 mg/kg of antibody was administered using intra-peritoneal injections of twice a day. The area of choroidal NV lesions was measured in flat-mounted choroid stained with PECAM. Flat-mounts were examined by fluorescence microscopy and quantified using Openlab software.

[5] = tested on: corneal neovascularization; experiment: Corneal NV regression, anti-VEGF aptamer and anti-PDGF aptamer, Example 6; format: in vivo, C57BL/6 mice; settings: pegaptanib 25 mg/kg i.p. twice a day, ARC-127 50 mg/kg once a day; treated day 10-20, read day 20; FIGS. 11, 12
Method: as §1
The corneal NV model of Example 1 was used to investigate the combination of an anti-VEGF aptamer and anti-PDGF aptamer. […] Corneal NV was visualized using CD31 staining (BD Biosciences Pharmingen, San Diego, Calif.) and quantified using Metamorph software. The percent of cornea covered by vessels was calculated as a percentage of total corneal area.

[6] = tested on: developing vessels of the retina; experiment: Neonatal mouse model, developing vessels of the retina, Example 3; format: in vivo, Neonatal C57BL/6 mice; settings: for effect on blood vessels of the developing retina (growth, morphology): 100 μg of each agent i.p. daily from P0, eyes taken at P4, versus control non-treated retina, FIG. 10
Text: The effect of administering pegaptanib sodium (Macugen™), and ARC-127 (Archemix Corp., Cambridge, Mass.), a PEGylated, anti-PDGF aptamer having the sequence […] […] […] GT (SEQ ID NO: 23, which corresponds to SEQ ID NO: 146 from U.S. Pat. No. 6,582,918, incorporated herein by reference in its entirety) having 2′-fluoro-2′-deoxyuridine at positions 6, 20 and 30, 2′-fluoro-2′-deoxycytidine at positions 8, 21, 28, and 29, 2′-O -Methyl-2′-deoxyguanosine at positions 9, 15, 17, and 31, 2′-O-Methyl-2′-deoxyadenosine at position 22, “N” in positions 10 and 23 from a hexaethylene-glycol phosphoramidite, and an inverted orientation T (i.e., 3′-3′-linked) at position 32, or both on the developing vessels of the retina was investigated. Neonatal C57BL/6 mice were injected daily (in the intra-peritoneal cavity) with 100 μg of ARC-127 or 100 μg of Macugen or both, starting on postnatal day 0 (P0). Mice eyes were enucleated at P4. The retinal vasculature was visualized in flatmounted retinas by immunostaining with PECAM and NG-2 or by perfusion with ConA-FITC and analyzed by fluorescence microscopy.

Row | Compound | regression of corneal neovascularization, less neovascular growth as compared to control [1] | decrease in vessel growth (percent of cornea covered by vessels) as compared to untreated controls and Gleevec treated eyes [2] [%] | decrease in vessel growth (percent of cornea covered by vessels) as compared to control [3] [%] | decrease in CNV area compared to control ([4]; experiment with APB5 (5 mg/kg i.p. twice a day) and pegaptanib 25 mg/kg i.p. twice a day) [%] | decrease in CNV area compared to control eyes [4] [%] | decrease in vessel growth (percent of cornea covered by vessels) as compared to day 20 controls [5] | effect on blood vessels of the developing retina (growth, morphology) ([6]; listed as Macugen) | mural cell recruitment to the developing vessels of the retina ([6]; 100 μg i.p. daily from P0, eyes taken at P4) | effect on blood vessels of the developing retina (growth, morphology) [6]
1 | pegaptanib sodium | little effect | 19.6 | 8.3 | 24 | 27 | 13.81% | did not interfere; also recorded: no effect | – | –
2 | Cc1ccc(NC(=O)c2ccc(CN3CCN(C)CC3)cc2)cc1Nc1nccc(-c2cccnc2)n1 [Gleevec] | – | – | – | – | 4.2 | – | – | – | –
3 | ARC-127: PEGylated, anti-PDGF aptamer (Archemix Corp.), sequence CAGGCUACGNCGTAGAGCAUCANTGATCCUGT (SEQ ID NO: 23) with 2′-fluoro and 2′-O-methyl modifications (CAGGCUACGNCGTAGAGCAUCANTGATCCUGT; PEG, 2'-fluoro and 2'-O-methyl modifications, chemistry not fully specified) | – | – | – | – | – | did not show a significant decrease | – | completely blocked | less vessel growth; also recorded: affects vessels outgrowth and morphology
